Measurements published in US20250352525A1, “COMPOSITIONS AND METHODS OF TREATING TRAUMATIC BRAIN INJURY” (United States Government As Represented By The Department …, priority 2024, published 2025).

Assays:
hsSTING = hsSTING (Homo sapiens, UniProt Q86WV6); conditions: covalent small-molecule inhibitor; cited from earlier work
mmSTING = biological target: T1, mmSTING (Mus musculus, UniProt Q3TBT3); conditions: covalent small-molecule inhibitor; cited from earlier work
T1 sequence (Q3TBT3 1-378): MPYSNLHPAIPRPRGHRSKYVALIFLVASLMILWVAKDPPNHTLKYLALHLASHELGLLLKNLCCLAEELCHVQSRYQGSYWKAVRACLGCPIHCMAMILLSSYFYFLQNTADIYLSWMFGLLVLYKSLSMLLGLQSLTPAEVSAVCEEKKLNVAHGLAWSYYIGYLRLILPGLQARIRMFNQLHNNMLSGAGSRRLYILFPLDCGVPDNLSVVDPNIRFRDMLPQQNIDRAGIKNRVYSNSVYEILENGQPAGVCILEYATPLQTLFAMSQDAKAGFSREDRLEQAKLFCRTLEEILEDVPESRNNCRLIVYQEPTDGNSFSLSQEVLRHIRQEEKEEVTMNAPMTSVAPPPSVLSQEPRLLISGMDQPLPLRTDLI

pSTING [1] = assay: Immunocytochemistry of pSTING in poly (I:C)-stimulated HT22 hippocampal cells, integrated density (ImageJ); assay type: cell-based, mouse; conditions: pre-treated 2 h, then poly (I:C) 6 h, normalized to blank
Procedure: Cells were untreated, or pre-treated with vehicle or STING-inhibitory compounds H151, a ketone analog of clonixin (e.g., clonixin butyl ketone), clonixeril (CXL) for 2 h and then treated with poly (I:C) for 6 h. Cells were then stained with DAPI (blue, top row) to visualize nuclei and pSTING antibody (red, bottom 5 row). Images are presented separately for enhanced clarity. Scale bar 100 μm.
Error bars represent mean ±standard deviation (SD). Separate channels were quantified by ImageJ for pSTING (red) and DAPI (blue) pixel density. A ratio of red signal to blue signal was calculated for each image. Ratios were averaged for each experimental group and normalized to the blank (control) group.

CCL20 = assay: qPCR for CCL20 in PolyIC-stimulated BV2 cells; assay type: cell-based; conditions: dosed 2 hours, then PolyIC 24 hours
Procedure: (§1) Experimental design: BV2 cells were plated in a 6-well plate and allowed to adhere overnight. Plates were dosed with clonixin butyl ketone or H151 for 2 hours and then PolyIC for 24 hours to induce inflammation. qPCR was performed to measure expression of CCL20 and IL-6 inflammatory genes and immunomodulatory Irf-3 gene.

IL-6 = assay: qPCR for IL-6 in PolyIC-stimulated BV2 cells; assay type: cell-based; conditions: dosed 2 hours, then PolyIC 24 hours
Procedure: as §1

Irf-3 = assay: qPCR for Irf-3 in PolyIC-stimulated BV2 cells; assay type: cell-based; conditions: dosed 2 hours, then PolyIC 24 hours
Procedure: as §1

IBA1 [2] = assay: Immunocytochemistry of IBA1 in poly (I:C)-stimulated BV2 microglial cells, integrated density (ImageJ); assay type: cell-based; conditions: pre-treated 2 h, then poly (I:C) 6 h, normalized to blank
Procedure: (§2) Experimental design: IMG or BV2 cells were plated in a 96-well or 6-well plate and allowed to adhere overnight. Plates were dosed with clonixeril for 2 hours and then LPS or polyinosinic-polycytidylic acid (polyIC) for 24 hours to induce inflammation. Ionized calcium-binding adaptor molecule 1 (IBA1) and pSTING expression were imaged and immunohistochemistry was measured (ImageJ).
Controls used are a blank (untreated); and 25 ng/ml poly (I:C) treatment for 6 h. Immunocytochemistry of BV2 cells pre-treated with a known STING inhibitor H151, clonixeril or a ketone analogue of clonixin (e.g., clonixin butyl ketone) for 2 h and then treated with poly (I:C) for 6 h, stained with IBA1 antibody (red) and DAPI (blue) to visualize nuclei. […] Separate channels were quantified by ImageJ for IBA1 (red) and DAPI (blue) pixel density. A ratio of red signal to blue signal was calculated for each image. Ratios were averaged for each experimental group and normalized to the blank (control) group.

[3] = test system: phosphorylated STING (pSTING); assay: Western blot for pSTING in poly (I:C)-stimulated HT22 hippocampal cells; assay type: cell-based, mouse; conditions: 100 pM pre-treatment 2 h, then poly (I:C) 6 h
Procedure: Immunoblot analysis of phosphorylated STING (pSTING) and β-actin in HT22 mouse hippocampal cells. Cells were pre-treated with 100 pM ketone analog of clonixin (e.g., clonixin butyl ketone) for 2 h, followed by 6 h stimulation with poly (I:C). Cell lysates were harvested at indicated time points using RIPA buffer supplemented with 1× Halt Protease and Phosphatase Inhibitor Cocktail, quantified via Bradford assay, and normalized to 20 μg protein per well. Lysates were resolved by SDS-PAGE and probed with rabbit polyclonal anti-pSTING and anti-β-actin antibodies.

IBA1 [4] = assay: Immunocytochemistry of IBA1 in LPS-stimulated IMG cells, integrated density (ImageJ); assay type: cell-based; conditions: pre-treated 2 h, then LPS 24 h, normalized to blank
Procedure: as §2
(§3) Cells were untreated, or pre-treated with vehicle or STING-inhibitory compound clonixeril for 2 h and then treated with LPS for 24 h. Cells were then stained with DAPI (blue) to visualize nuclei, IBA1 or pSTING antibody (red). Images are presented separately for enhanced clarity. […] Error bars represent mean ±standard deviation (SD). Separate channels were quantified by ImageJ for IBA1 or pSTING (red) and DAPI (blue) pixel density. A ratio of red signal to blue signal was calculated for each image. Ratios were averaged for each experimental group and normalized to the blank (control) group.

pSTING [5] = assay: Immunocytochemistry of pSTING in LPS-stimulated IMG cells, integrated density (ImageJ); assay type: cell-based; conditions: pre-treated 2 h, then LPS 24 h, normalized to blank
Procedure: as §2, §3

Chain of hsSTING (Q86WV6 whole entry H232R): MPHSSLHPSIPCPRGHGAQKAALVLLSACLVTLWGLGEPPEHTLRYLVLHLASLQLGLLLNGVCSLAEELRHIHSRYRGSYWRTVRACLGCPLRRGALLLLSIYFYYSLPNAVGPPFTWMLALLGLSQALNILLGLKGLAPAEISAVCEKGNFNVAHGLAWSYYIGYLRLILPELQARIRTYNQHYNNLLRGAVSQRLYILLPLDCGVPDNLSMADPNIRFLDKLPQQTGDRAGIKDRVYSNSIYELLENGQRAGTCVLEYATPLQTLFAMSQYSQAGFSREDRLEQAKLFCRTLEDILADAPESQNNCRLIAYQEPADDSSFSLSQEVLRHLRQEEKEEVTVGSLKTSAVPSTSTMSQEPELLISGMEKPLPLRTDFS

Compound: CCCCCCc1ccc(NC(=O)c2ccc([N+](=O)[O-])o2)cc1 [C-171, N-(4-hexylphenyl)-5-nitro-2-furancarboxamide]
- inhibition of hsSTING (hsSTING): efficiently inhibits
- inhibition of mmSTING (mmSTING): efficiently inhibits

Compound: CCc1ccc(NC(=O)Nc2c[nH]c3ccccc23)cc1 [H151]
- pSTING (immunocytochemistry, integrated density) (pSTING [1]): reduction
- CCL20 expression at 1 picomolar concentration (CCL20): but not H151 showed a significant reduction
- expression of CCL20 (qPCR) (CCL20): significantly decreased
- expression of IL-6 (qPCR) (IL-6): significantly decreased
- expression of interferon regulatory gene Irf3 (qPCR) (Irf-3): reduced significantly
- IBA1 integrated density (IBA1 [2]): reduction

Compound: CCCCC(=O)c1cccnc1Nc1cccc(Cl)c1C [clonixin butyl ketone, {2-[(3-chloro-2-methylphenyl)amino]pyridin-3-yl}-1-pentanone]
- pSTING (immunocytochemistry, integrated density) (pSTING [1]): reduction
- poly (I:C)-induced STING phosphorylation (Western blot, normalized to β-actin) [3]: inhibition
- CCL20 expression at 1 picomolar concentration (CCL20): significant reduction
- expression of CCL20 (qPCR) (CCL20): significantly decreased
- IL-6 expression at 1 picomolar concentration (IL-6; 1 picomolar): significant reduction
- expression of IL-6 (qPCR) (IL-6): significantly decreased
- expression of interferon regulatory gene Irf3 (qPCR) (Irf-3): reduced significantly
- IBA1 integrated density (IBA1 [2]): reduction

Compound: clonixeril
- pSTING (immunocytochemistry, integrated density) (pSTING [1]): reduction
- IBA1 integrated density (IBA1 [4]): reduction
- pSTING integrated density (pSTING [5]): reduction
- IBA1 integrated density (IBA1 [2]): reduction
